Ki data for one compound are collected here from BindingDB's records for PubMed 11454940 (Sanofi Synthelabo, 2001).

For assay [1], the target named is Gamma-aminobutyric acid receptor subunit alpha-1 (Rattus norvegicus, UniProt P62813).
Assay [2] addresses Gamma-aminobutyric acid receptor subunit alpha-5 (Rattus norvegicus, UniProt P19969).
The target in assay [3] is Gamma-aminobutyric acid receptor subunit alpha-3 (Rattus norvegicus, UniProt P20236).
Assay [4] addresses Gamma-aminobutyric acid receptor subunit alpha-2 (Rattus norvegicus, UniProt P23576).

Values joined by “and” are separate entries in the source; they are usually repeats but may differ in a detail not shown here. Equal values may be shown once.

Gamma-aminobutyric acid receptor subunit alpha-1, sequence (P62813 whole entry): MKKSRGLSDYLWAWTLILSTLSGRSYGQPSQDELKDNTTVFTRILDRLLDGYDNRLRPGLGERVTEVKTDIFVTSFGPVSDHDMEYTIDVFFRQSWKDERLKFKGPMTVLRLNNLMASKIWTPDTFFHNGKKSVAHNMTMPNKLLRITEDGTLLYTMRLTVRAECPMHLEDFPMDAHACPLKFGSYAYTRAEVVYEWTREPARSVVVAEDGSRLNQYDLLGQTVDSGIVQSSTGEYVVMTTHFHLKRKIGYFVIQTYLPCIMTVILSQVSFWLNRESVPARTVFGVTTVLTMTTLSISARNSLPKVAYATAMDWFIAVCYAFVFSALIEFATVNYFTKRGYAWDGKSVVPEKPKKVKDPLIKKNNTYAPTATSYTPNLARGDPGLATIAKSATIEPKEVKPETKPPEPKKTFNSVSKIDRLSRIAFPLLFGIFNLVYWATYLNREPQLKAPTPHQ
Gamma-aminobutyric acid receptor subunit alpha-2, sequence (P23576 whole entry): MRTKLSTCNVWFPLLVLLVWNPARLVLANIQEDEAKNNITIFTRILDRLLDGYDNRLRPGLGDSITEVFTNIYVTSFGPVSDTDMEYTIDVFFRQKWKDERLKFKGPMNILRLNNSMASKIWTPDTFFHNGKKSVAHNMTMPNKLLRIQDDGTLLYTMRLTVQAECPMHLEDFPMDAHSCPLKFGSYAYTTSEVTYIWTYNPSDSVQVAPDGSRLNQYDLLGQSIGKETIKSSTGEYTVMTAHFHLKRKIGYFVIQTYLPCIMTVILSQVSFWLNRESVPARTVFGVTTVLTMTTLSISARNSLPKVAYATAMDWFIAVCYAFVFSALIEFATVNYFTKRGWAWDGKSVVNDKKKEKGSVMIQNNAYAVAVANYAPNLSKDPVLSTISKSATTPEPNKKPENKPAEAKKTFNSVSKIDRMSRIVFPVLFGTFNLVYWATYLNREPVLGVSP
Gamma-aminobutyric acid receptor subunit alpha-5, sequence (P19969 whole entry): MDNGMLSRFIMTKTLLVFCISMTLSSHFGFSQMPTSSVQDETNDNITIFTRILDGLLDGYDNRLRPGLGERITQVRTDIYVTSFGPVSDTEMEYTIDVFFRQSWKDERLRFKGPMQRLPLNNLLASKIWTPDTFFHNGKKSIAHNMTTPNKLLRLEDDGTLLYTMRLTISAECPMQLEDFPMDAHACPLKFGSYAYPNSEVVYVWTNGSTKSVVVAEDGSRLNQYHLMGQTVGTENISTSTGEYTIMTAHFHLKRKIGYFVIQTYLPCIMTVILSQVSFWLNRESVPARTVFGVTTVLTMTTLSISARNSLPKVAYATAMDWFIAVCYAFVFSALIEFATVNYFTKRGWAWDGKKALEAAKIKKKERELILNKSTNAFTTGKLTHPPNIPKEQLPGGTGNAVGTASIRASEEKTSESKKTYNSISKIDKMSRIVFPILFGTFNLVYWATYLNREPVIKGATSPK
Gamma-aminobutyric acid receptor subunit alpha-3, sequence (P20236 whole entry I342M/K409L): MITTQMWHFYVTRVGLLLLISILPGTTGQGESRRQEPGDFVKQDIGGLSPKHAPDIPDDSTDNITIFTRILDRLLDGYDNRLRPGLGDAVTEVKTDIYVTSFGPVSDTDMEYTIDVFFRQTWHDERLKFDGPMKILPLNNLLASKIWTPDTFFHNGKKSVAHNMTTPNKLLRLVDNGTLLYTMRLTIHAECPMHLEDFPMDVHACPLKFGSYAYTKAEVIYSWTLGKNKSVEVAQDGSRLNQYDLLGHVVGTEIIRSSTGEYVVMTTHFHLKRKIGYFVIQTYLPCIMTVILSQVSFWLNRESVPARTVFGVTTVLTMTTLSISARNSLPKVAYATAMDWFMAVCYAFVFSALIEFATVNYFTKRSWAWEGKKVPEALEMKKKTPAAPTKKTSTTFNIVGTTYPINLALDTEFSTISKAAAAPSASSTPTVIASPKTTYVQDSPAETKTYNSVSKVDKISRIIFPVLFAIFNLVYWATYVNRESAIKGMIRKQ

With `Cn1c2ccc(F)cc2c2c(C(=O)N3CCCC3)cn(-c3ccccc3)c(=O)c21` [6-FLUOR-2-FENYL-9-METHYL-4-(PYRROLIDINE-1-CARBONYL)-9H-PYRIDO[3,4B]INDOOL-1(2H)-ON], the Ki was 0.0068 µM and 0.017 µM in assay [1]; 0.117 µM and 0.215 µM in assay [2]; 0.0803 µM in assay [3]; 0.0123 µM and 0.073 µM in assay [4].

As usually defined, the Ki is a measure of affinity in units of concentration, obtained from inhibition or displacement. Read a high Ki as weaker binding.
